Test results from patent publication US9078851B2, “Composition for preventing or treating a spinal cord injury” (UNIVERSITY-INDUSTRY COOPERATION GROUP OF KYUNG HEE, priority 2009, dated 2015).

How the values were obtained:
[1] = test system: spinal cord injury site tissue; assay: Immunofluorescence staining of CSPG, CD206, GFAP, NF200 after spinal cord injury; type: in vivo, rat; conditions: tail vein injection
Method: For the present experiment, male white mice (Sprague-Dawley 240-250 g, 7 weeks, 10 mice) were under general anesthetics by an intraperitoneal injection of Ketamin (80 mg/kg, Yuhan Corporation) and Rompun (7.4 mg/kg, Bayer Korea Corporation). Laminectomy was performed at spine T9-10 level to expose a spinal cord keeping intact dura. And then, rat was put on Spinal cord dropping device (NYU); spine processes at T8 and T11 sites were fixed by using a clamp, respectively; then, a rod (diameter 2 mm, weight 10 g) was dropped from 25 mm height vertical to dorsal part of spinal cord followed by suturing injury site muscle and skin. The rat of Sham-operated control group was performed only laminectomy at same area without damaging spinal cord injury (marked by ‘sham” in figures; hereinafter, the same as above).
Substance P (marked by ‘SP’ in figures; hereinafter, the same as above) dissolved in saline of 5 nmol/kg concentration was injected through tail vein at immediately, 24 hours, and 48 hours after a spinal cord injury for experimental groups. At sham control group, same volume of saline (marked by ‘vehicle’ in figures; hereinafter, the same as above) without Substance P was injected at same time points. Operation were performed on an electric heating pad of 37° C., and then rat were transferred to cage after awake from the anesthetic. • (2) Preparation of Tissue
Then, perfusion was performed by opening the of heart and pumping 200 ml of a physiological saline and 4% paraformaldehyde (Sigma) through right atrium of heart. Then, a segment of spinal cord with injury site was removed and put in 4% paraformaldehyde at 4° C. for 6 hours. Subsequently, spinal cords were washed with saline, and placed in 30% sucrose (Sigma) solution at 4° C. overnight. Next day, spinal cords were cut in a length of 1.5 cm in which the injured site is localized in epicenter followed by embedding in OCT compound (optimal cutting temperature compound, Sakura). The fixed tissues were cut in a thickness of 10 μm (Longitudinal section) or 20 μm (cross section) with Cryostat (Leica) and attached to slide. Finally, slides were stored at −80° C. • (3) Immunofluorescence Staining
The selected sections for immunofluorescence staining were washed with saline for three times, and blocked with 10% horse serum (Jackson ImmunoResearch) for 1 hour at a room temperature. ED1 antibody (1:200, Milipore), a marker for activated microglia/macrophage, was treated and placed at 4° C. overnight. Next day, slides were washed with saline, and treated with a secondary antibody conjugated with Alexa Fluor 488 (1:400, Invitrogen) or cyanine 3 (1:500, Jackson ImmunoResearch) for 1 hour at room temperature. […]

[2] = test system: spinal cord injury; assay: Ethologic change test, BBB locomotor rating scale after spinal cord injury; type: in vivo, rat
Method: For the present experiment, male white mice (Sprague-Dawley 240-250 g, 7 weeks, 10 mice) were under general anesthetics by an intraperitoneal injection of Ketamin (80 mg/kg, Yuhan Corporation) and Rompun (7.4 mg/kg, Bayer Korea Corporation). Laminectomy was performed at spine T9-10 level to expose a spinal cord keeping intact dura. And then, rat was put on Spinal cord dropping device (NYU); spine processes at T8 and T11 sites were fixed by using a clamp, respectively; then, a rod (diameter 2 mm, weight 10 g) was dropped from 25 mm height vertical to dorsal part of spinal cord followed by suturing injury site muscle and skin. The rat of Sham-operated control group was performed only laminectomy at same area without damaging spinal cord injury (marked by ‘sham” in figures; hereinafter, the same as above). Substance P (marked by ‘SP’ in figures; hereinafter, the same as above) dissolved in saline of 5 nmol/kg concentration was injected through tail vein at immediately, 24 hours, and 48 hours after a spinal cord injury for experimental groups. At sham control group, same volume of saline (marked by ‘vehicle’ in figures; hereinafter, the same as above) without Substance P was injected at same time points. Operation were performed on an electric heating pad of 37° C., and then rat were transferred to cage after awake from the anesthetic. • (2) Preparation of Tissue An ethologic change test was performed as follows: an experimental animal was put to a large basin having soft and non-smooth bottom (Width 90 cm×Length 130 cm×Height 30 cm); then body's balance states and moving states of hind-leg's coxalgic pelvis, knee joint, and ankle joint were observed when freely walking; then it was converted into a score based on Basso-Bresnahan-Beattie (BBB) locomotor rating scale (Basso et al., 1995); and then four researchers performed a blind technique. Substance P or saline was injected to a tail vein of rat, respectively at immediately, 1 d, 2 d after a spinal cord injury, using the same method as (1) of Example 1. And then, for the experimental group (10 rats/group) and the control (9 rats/group), an ethologic change due to a spinal cord injury was observed and estimated for different periods, such as after injuring, 1 week, 2 weeks, 3 weeks, 4 weeks, 5 weeks, […], and 6 weeks. A mean value of scores (BBB scores) observed by four researchers was taken, and the results thereof were statistically analyzed. The statistical analysis was performed in a method of two-way ANOVA with post hoc Tukey test.

[3] = two weeks after spinal cord injury

In the case of Substance P, the GFAP-positive cells distribution ([1]; after spinal cord injury) is reported as “excluded from CD206-positive spinal cord injury site”, the “CD206 and ED1 double-positive cells” value [1, 3] is reported as “gathered around an injury site” and the “CSPG-positive signal around an injury site” value [1, 3] is reported as “significantly decreased”. The neurofilament protein ([1]; vs control, exposed to CD206-positive cell field) was “well preserved”, the motor skill ([2]; from 14 days, vs control) was “meaningful improved” and the motor skill ([2]; from about 5 weeks, vs control) was “meaningfully recovered and improved”. For the same substance, the “spinal cord nerve function” value ([2]; from about one week after administrating, vs control) was “beginning to recover” and the BBB score ([2]; tail vein injection at immediately, 1 d, 2 d after injury, at 6 weeks, P<0.05 vs control) was 11.5±0.5.
